Measured values taken from US7625926B2, “P-glycoprotein inhibitor, method for preparing the same and pharmaceutical composition comprising the same” (Hanmi Pharm. Co., Ltd, priority 2003, dated 2009).

The compounds below were run on MCF-7/Dox cell, which is MCF-7 expressing p-glycoprotein. Details: enhancement of anticancer activity of paclitaxel against MCF7/Dox; ED50 of paclitaxel alone / ED50 with 50 nM test compound.
Experimental: The cells were subcultured in 5% FBS (fetal bovine serum)/RPMI1640 medium supplemented with glutamine 2 mmol, sodium bicarbonate 3.7 g/L and gentamicin 10 mg/L at 37° C. in 5% CO2 incubator under 100% humidity, and collected using a 0.25% trypsin solution containing 3 mM 1,2-cyclohenxandiamine tetraacetic acid.
The collected cells were plated on a 96 well flat-bottomed plate at a density of 2×10^3 cells/well, and incubated in the same medium for 24 hours. Paclitaxel, an anticancer agent, was diluted with the same medium to obtain 10^−11˜10^−6 M test solutions. […] After incubating for 72 hours, the culture medium was removed, each well was treated with 10% trichloroacetic acid for 1 hour to fix the cells, washed with water, and dried at room temperature. After adding a dyeing solution containing 1% acetic acid with 0.4% SRB (sulforhodamine B) thereto, the wells were kept at room temperature for 30 min, and washed with 1% acetic acid to remove remaining SRB. […] Also, the enhancement of the anticancer activity of paclitaxel against MCF7/Dox (resistant cancer cells) was measured by determining ED^PAC50/ED50, wherein ED^PAC50 is the value determined for the case of paclitaxel alone.

Structure (SMILES)	ED50^PAC/ED50
COc1cc2c(cc1OC)CN(CCc1ccc(-n3nnc(-c4cc(OC)c(OC)cc4NC(=O)c4ccc5ccccc5n4)n3)cc1)CC2 [Example 2, quinoline-2-carboxylic acid [2-(2-{4-[2-(6,7-dimethoxy-3,4-dihydro-1H-isoquinolin-2-yl)-ethyl]-phenyl}-2H-tetrazol-5-yl)-4,5-dimethoxy-phenyl]-amide]	2.7
COc1cc2c(cc1OC)CN(CCc1ccc(-n3nnc(-c4cc(OC)c(OC)cc4NC(=O)c4cc5ccccc5cn4)n3)cc1)CC2 [Example 3, isoquinoline-3-carboxylic acid [2-(2-{4-[2-(6,7-dimethoxy-3,4-dihydro-1H-isoquinolin-2-yl)-ethyl]-phenyl}-2H-tetrazol-5-yl)-4,5-dimethoxy-phenyl]-amide]	3.5
COc1cc2c(cc1OC)CN(CCc1ccc(-n3nnc(-c4cc(OC)c(OC)cc4NC(=O)c4cccc5cccnc45)n3)cc1)CC2 [Example 4, quinoline-8-carboxylic acid [2-(2-{4-[2-(6,7-dimethoxy-3,4-dihydro-1H-isoquinolin-2-yl)-ethyl]-phenyl}-2H-tetrazol-5-yl)-4,5-dimethoxy-phenyl]-amide]	4.3
COc1cc2c(cc1OC)CN(CCc1ccc(-n3nnc(-c4cc(OC)c(OC)cc4NC(=O)c4nccc5ccccc45)n3)cc1)CC2 [Example 5, isoquinoline-1-carboxylic acid [2-(2-{4-[2-(6,7-dimethoxy-3,4-dihydro-1H-isoquinolin-2-yl)-ethyl]-phenyl}-2H-tetrazol-5-yl)-4,5-dimethoxy-phenyl]-amide]	1.8
COc1cc2c(cc1OC)CN(CCc1ccc(-n3nnc(-c4cc(OC)c(OC)cc4NC(=O)c4ccnc5ccccc45)n3)cc1)CC2 [Example 6, quinoline-4-carboxylic acid [2-(2-{4-[2-(6,7-dimethoxy-3,4-dihydro-1H-isoquinolin-2-yl)-ethyl]-phenyl}-2H-tetrazol-5-yl)-4,5-dimethoxy-phenyl]-amide]	3.3
COc1cc2c(cc1OC)CN(CCc1ccc(-n3nnc(-c4cc(OC)c(OC)cc4NC(=O)c4cc(OC)c5ccccc5n4)n3)cc1)CC2 [Example 7, 4-methoxy-quinoline-2-carboxylic acid [2-(2-{4-[2-(6,7-dimethoxy-3,4-dihydro-1H-isoquinolin-2-yl)-ethyl]-phenyl}-2H-tetrazol-5-yl)-4,5-methoxy-phenyl]-amide]	3.3
COc1cc2c(cc1OC)CN(CCc1ccc(-n3nnc(-c4cc(OC)c(OC)cc4NC(=O)c4cnc5ccccc5n4)n3)cc1)CC2 [Example 8, quinoxaline-2-carboxylic acid [2-(2-{4-[2-(6,7-dimethoxy-3,4-dihydro-1H-isoquinolin-2-yl)-ethyl]-phenyl}-2H-tetrazol-5-yl)-4,5-dimethoxy-phenyl]-amide]	22.0
COc1cc2c(cc1OC)CN(CCc1ccc(-n3nnc(-c4cc(OC)c(OC)cc4NC(=O)c4ccccn4)n3)cc1)CC2 [Example 9, pyridine-2-carboxylic acid [2-(2-{4-[2-(6,7-dimethoxy-3,4-dihydro-1H-isoquinolin-2-yl)-ethyl]-phenyl}-2H-tetrazol-5-yl)-4,5-dimethoxy-phenyl]-amide]	3.1
COc1cc2c(cc1OC)CN(CCc1ccc(-n3nnc(-c4cc(OC)c(OC)cc4NC(=O)c4cccnc4)n3)cc1)CC2 [Example 10, N-[2-(2-{4-[2-(6,7-dimethoxy-3,4-dihydro-1H-isoquinolin-2-yl)-ethyl]-phenyl}-2H-tetrazol-5-yl)-4,5-dimethoxy-phenyl]-nicotinamide]	3.0
COc1cc2c(cc1OC)CN(CCc1ccc(-n3nnc(-c4cc(OC)c(OC)cc4NC(=O)c4ccncc4)n3)cc1)CC2 [Example 11, N-[2-(2-{4-[2-(6,7-dimethoxy-3,4-dihydro-1H-isoquinolin-2-yl)-ethyl]-phenyl}-2H-tetrazol-5-yl)-4,5-dimethoxy-phenyl]-isonicotinamide]	3.2
